# Assay results published in ChEMBL document CHEMBL1132582, “Bicyclic tripeptide mimetics with reverse turn inducing properties” (J Med Chem, 1999).
# How the values were obtained:
# [1] = biological target: T1, Angiotensin II receptor (AT-1) type-1 (Rattus norvegicus, UniProt P29089+P25095); test: Compound was evaluated in a radioligand binding assay to displace [125I]-Ang II from Angiotensin II receptor, type 1 in rat liver membranes; type: cell membranes, Membrane
# T1 sequence (P29089 whole entry): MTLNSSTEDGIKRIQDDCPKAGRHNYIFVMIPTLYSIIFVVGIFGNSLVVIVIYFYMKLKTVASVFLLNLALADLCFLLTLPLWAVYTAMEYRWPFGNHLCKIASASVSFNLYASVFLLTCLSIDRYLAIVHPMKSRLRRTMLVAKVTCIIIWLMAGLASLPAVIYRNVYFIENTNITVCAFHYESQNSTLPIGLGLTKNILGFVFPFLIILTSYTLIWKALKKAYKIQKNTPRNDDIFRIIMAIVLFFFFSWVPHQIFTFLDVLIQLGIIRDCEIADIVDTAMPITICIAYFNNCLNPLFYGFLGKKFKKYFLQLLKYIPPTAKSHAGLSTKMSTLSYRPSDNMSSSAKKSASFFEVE
# T1 sequence (P25095 whole entry): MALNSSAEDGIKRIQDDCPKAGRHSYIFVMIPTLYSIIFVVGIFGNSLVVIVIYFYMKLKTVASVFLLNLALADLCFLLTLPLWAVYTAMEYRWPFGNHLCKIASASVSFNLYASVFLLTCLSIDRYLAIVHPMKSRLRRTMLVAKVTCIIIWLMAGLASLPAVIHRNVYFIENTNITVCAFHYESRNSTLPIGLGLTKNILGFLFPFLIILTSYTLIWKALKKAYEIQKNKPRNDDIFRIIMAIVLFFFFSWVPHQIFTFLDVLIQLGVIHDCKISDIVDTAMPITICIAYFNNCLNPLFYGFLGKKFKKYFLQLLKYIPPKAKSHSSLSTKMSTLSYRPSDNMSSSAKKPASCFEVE
# [2] = biological target: T1, Angiotensin II receptor (AT-1) type-1; test: Compound was evaluated in a binding assay using Chinese hamster ovary (CHO) cells stably expressing the rat Angiotensin II receptor, type 1; type: cell-based
structure (smiles),measurement,setting,value
NC(N)=NCCC[C@H](NC(=O)[C@@H](N)CC(=O)O)C(=O)N[C@H]1C[C@H]2SC[C@@H](C(=O)N[C@@H](Cc3c[nH]cn3)C(=O)N3CCC[C@H]3C(=O)N[C@@H](Cc3ccccc3)C(=O)O)NC(=O)[C@H](Cc3ccc(O)cc3)N2C1=O,IC50,[1],>= 10 uM
same,IC50,[2],>= 10 uM
